Laboratory results: patent publication US20230158057A1, “COMPOSITIONS AND METHODS FOR THE TREATMENT OF PAIN” (Duke University, priority 2020, published 2023)
“Also recorded” adds a separate entry of the source.

What was measured:
[1] = system: tumor-bearing femora; assay: Bone fractures of tumor-bearing femora on d17 after LLC inoculation; type: in vivo, mouse; details: vehicle 87.5%
Description: Development and progression of cancer-induced osteolytic bone destruction frequently leads to bone fracture, which is an important component of SREs in patients with bone metastasis and is associated with decreased overall survival. On d17 after LLC inoculation, mice were euthanized and the tumor bearing femora were collected and the distal tumor-bearing femur where bone destruction occurs was analyzed.

[2] = system: mice with CIPN or BCP; assay: Conditioned place preference (CPP) assay in chronic pain (CIPN and BCP) models; type: in vivo, mouse; details: for conditioned place preference (ongoing pain): mice with CIPN or BCP, i.t.; for conditioned place preference, single pairing: mice with neuropathic pain (CIPN), i.t. 35 nmol
Description: All mice underwent 3 d of preconditioning habituation in a temperature- and humidity-controlled room under low-light conditions between 08:00-16:00 in a two compartment CPP chamber (Med Associates Inc.). The two compartments differed by both visual and tactile cues. On the 4th day, animal behavior was video-recorded using a webcam connected to a laptop computer, and animal movement was automatically tracked for 15 minutes using the ANY-Maze software (Stoelting). […] On the conditioning day(s) (day 5 for single trial; day 5-7 for repeated trials), two pairing sessions were performed, with vehicle pairing in the AM session and drug treatment (e.g., vehicle or drug) in the PM session, separated by 4 h. In the AM session, mice always received vehicle (10 μl saline, delivered via i.t. injection under isoflurane anesthesia) and were immediately placed in their preferred CPP chamber for 2 h. […] 24 h after the completion of the pairing experiments, mice were placed in the CPP test box with access to both chambers and behavior was recorded for 15 minutes and analyzed using the ANY-Maze software for chamber preference. CPP score was calculated as the inverse of the time spent in the preferred chamber according to: [post-preference (sec)—pre-preference (sec)]. Vehicle served as a negative control for these experiments, while morphine (three trials/naïve mice) or clonidine (single trial/ongoing pain) served as positive controls.

[3] = system: tumor-bearing femora; assay: In vivo X-ray radiography of bone destruction, LLC model; parameters: species or system mouse; details: for bone destruction score: LLC model, twice i.p.
Excerpt: In vivo X-ray radiography. Osteolytic bone destruction was continuously evaluated by radiography using the MultiFocus by Faxitron system (Faxitron Bioptics LLC, Tucson, Ariz.). Radiographs of tumor-bearing femora were rated for bone destruction on a 0-5 score scale based on previous study: 0 for normal bone at baseline without tumor inoculation; 1 for one to three radiolucent lesions indicative of bone destruction compared to baseline; 2 for increased number of lesions (three to six lesions) and loss of medullary bone; 3 for loss of medullary bone and erosion of cortical bone; 4 for full-thickness unicortical bone loss; 5 for full-thickness bicortical bone loss and displaced skeletal fracture. All radiographic image quantifications were completed by an experimenter who was blinded to the experimental conditions.

[4] = system: IFN-α; assay: IFN-α ELISA in serum and bone marrow lysate after i.p. STING agonist, LLC model; type: in vivo, mouse; details: for increase of serum levels of IFN-α: 4 h after a single i.p. injection 20 mg/kg on d3, vs vehicle; for IFN-α in bone marrow (BM) lysate: 4 h after i.p., d3
Description: ELISA. Mouse high-sensitivity IFN-α ELISA kit (42115-1) and IFN-β ELISA kit (42410-1) were purchased from PBL Assay Science. Mouse CTX-I ELISA kit (AC-06F1) and mouse PINP ELISA kit (AC-33F1) were purchased from Immunodiagnostic Systems. ELISA was performed using culture medium, serum, and bone marrow lysates. Serum was obtained from whole blood that was collected from a submandibular vein via facial vein puncture, coagulated for 30 minutes at room temperature, followed by centrifugation (2,000 ×g for 10 min, 4° C.) and collection of the supernatant (serum). Bone marrow was homogenized in a lysis buffer containing protease inhibitors at 4° C. for 30 minutes. ELISA was conducted in accordance with the manufacturer's instructions. A standard curve was performed for each experiment.

[5] = system: naïve mice; assay: Von Frey testing of mechanical thresholds in naïve mice (WT and knockout); type: in vivo, mouse; details: naïve mice; for dose exhibiting the largest increase in paw withdrawal thresholds: i.t.; for mechanical sensory thresholds (von Frey): i.t. injection
Description: Reflexive-based sensory testing in mice: All behavioral testing in mice was performed in a specialized humidity- and light-controlled mouse behavior facility maintained at 21-24° C., with testing conducted between the hours of 8:00-16:00. Mice were habituated to the testing environment for at least 2 days prior to baseline testing. All tests were performed by an experimenter who was blinded to experimental conditions, including genotypes and drug treatment. For multi-day experiments using STING agonists, mice were tested in the same room at approximately the same time each day. To measure mechanical sensitivity, mice were confined to individual chambers with non-transparent borders on an elevated mesh rack, preventing mice from visualizing or interacting with one another during the testing period. Mouse hindpaws were stimulated with a series of von Frey filaments with logarithmically increasing stiffness (0.02-2.56 g, Stoelting), which was applied perpendicularly to the central plantar surface. We determined the 50% paw withdrawal threshold using the up-down method. […] To test cold sensitivity, mice were again placed on an elevated metal mesh floor in isolated chambers, and a ˜20 μl acetone drop was applied to the central plantar surface of the mouse hindpaw using a pipette.
For the experiments utilizing i.t. 2′3′-cGAMP and 3′3′-cGAMP complexed with Lipofectamine 2000 (ThermoFisher, 11668), 10 μg 2′3′-cGAMP or 3′3′-cGAMP was incubated at room temperature for 30 minutes in sterile PBS with 3 μl Lipofectamine 2000. In this case, the vehicle control was 3 μl Lipofectamine 2000 in PBS, as in a previous study which used this approach. […] For experiments utilizing rabbit anti-IFN-α or -β neutralizing antibodies, a polyclonal rabbit IgG antibody served as the control. Antibodies were utilized in vivo at 300 ng/mouse or in vitro at 300 ng/ml. Paclitaxel was administered via repeated i.p. injections every other day for 4 days at a dose of 2 mg/kg. For the whole mount DRG recordings, young mice (4-6 weeks) were administered a single 6 mg/kg dose one week prior to the experiment. All intrathecal injections were performed under brief anesthesia with 2-2.5% isoflurane. Drugs administered by intrathecal injection were preceded by shaving a small area on the back corresponding to the injection site, followed by spinal puncture using a 30-gauge needle between the L5-L6 levels to deliver a maximum of 5-10 μl into the cerebrospinal fluid. Successful intrathecal injection was always confirmed by a brisk tail-flick upon delivery. For the experiments involving intraplantar (i.pl.) injection, IFN-α was dissolved in sterile saline and administered at the concentrations indicated in the figures in a total volume of 20 μl, administered under 2-2.5% isoflurane anesthesia to minimize animal stress. For these experiments, vehicle (saline) or IFN-α were slowly and carefully expressed into the left dorsal hindpaw of anesthetized mice and allowed to perfuse the tissue for ˜20 seconds prior to removal of the needle. […] Mechanical sensory testing was done anteriorly and care was taken to avoid Von Frey filament stimulation of the injection site.

Compound	mice with distal bone fractures [1] [%]	conditioned place preference (ongoing pain) [2]	conditioned place preference, single pairing [2]	bone destruction in Batf3^−/− mice ([3]; 20 mg/kg i.p. d3 and d7)	bone destruction score, WT and Rag1^−/− ([3]; 20 mg/kg i.p. d3 and d7)	bone destruction score, WT vs STING^gt/gt ([3]; 20 mg/kg i.p. d3 and d7)	bone destruction score [3]	bone destruction score, WT vs Ifnar1^−/− ([3]; d11 and d15)	increase of serum levels of IFN-α [4]	IFN-α in bone marrow (BM) lysate [4]	dose exhibiting the largest increase in paw withdrawal thresholds [5] [µg]	mechanical sensory thresholds (von Frey) [5]
Cc1ccc2c(=O)c3cccc(CC(=O)O)c3oc2c1C [DMXAA, 2-(5,6-dimethyl-9-oxo-9H-xanthen-4-yl)acetic acid]	12.5	induced CPP in both models	induced comparable CPP as clonidine	reduced bone destruction on d8 and d11 but not d15 in Batf3^−/− mice	improvement in the bone destruction score in both WT and Rag1^−/− mice at d11, but not at d15	reduction in the bone destruction score in DMXAA-treated WT mice at d11 and d15 after tumor inoculation, and this effect was abolished in STING^gt/gt mice	decreased the bone destruction score on d8, d11 and d15	significantly reduced the bone destruction score without changing overall body weight in WT mice, but this effect was abolished in Ifnar1^−/− mice	approximately 1000 fold	sharply increased	10	induced dose-dependent antinociception; also recorded: dose-dependent increase in paw withdrawal thresholds
Nc1ncnc2c1ncn2[C@@H]1O[C@@H]2COP(=O)([S-])O[C@@H]3[C@H](O)[C@@H](COP([O-])(=S)O[C@H]2[C@H]1O)O[C@H]3n1cnc2c(N)ncnc21.[Na+].[Na+] (stereo partly drawn) [ADU-S100, (2′-5′)-[P(R)]-5′-O-[(R)-hydroxymercaptophosphinyl]-P-thioadenylyl-adenosine cyclic dinucleotide]	0	induced CPP in both models	induced comparable CPP as clonidine	–	–	–	reduced the bone destruction score at d11 and d15	–	approximately 1000 fold	sharply increased	25	induced dose-dependent antinociception
